Source: patent US20100056563A1, “NOVEL 1.8-NAPHTHYRIDINE COMPOUNDS” (priority 2007, published 2010)

biological target: T1, FLAG-tagged full length PHD2 (Homo sapiens, UniProt Q9GZT9); assay: HIF-PHD2 time resolved fluorescence inhibition assay (HIF-1α peptide hydroxylation, VHL complex detection); type: biochemical; settings: 0.2 μM 2-oxoglutarate, 0.5 μM HIF-1α peptide, 2 hr at room temperature
T1 construct: FLAG-tagged full length PHD2; FLAG; made in house; host or cells: baculovirus-infected Sf9 cells
T1 sequence (Q9GZT9 whole entry): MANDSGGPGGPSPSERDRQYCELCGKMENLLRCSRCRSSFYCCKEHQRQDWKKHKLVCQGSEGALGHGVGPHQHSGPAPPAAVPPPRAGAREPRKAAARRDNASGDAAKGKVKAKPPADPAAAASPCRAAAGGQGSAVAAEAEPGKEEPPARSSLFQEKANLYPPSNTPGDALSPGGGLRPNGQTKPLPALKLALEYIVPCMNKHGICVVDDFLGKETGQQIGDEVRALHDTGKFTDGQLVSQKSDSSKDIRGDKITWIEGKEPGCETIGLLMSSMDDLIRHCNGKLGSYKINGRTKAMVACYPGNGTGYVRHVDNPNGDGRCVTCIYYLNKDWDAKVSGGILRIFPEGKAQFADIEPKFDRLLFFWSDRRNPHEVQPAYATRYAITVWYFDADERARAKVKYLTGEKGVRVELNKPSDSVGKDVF
Procedure: To each well of a 96-well plate was added […] of test compound in DMSO and 20 μl of assay buffer (50 mM Tris pH 7.4/0.01% Tween-20/0.1 mg/ml bovine serum albumin/10 μM ferrous sulfate/1 mM sodium ascorbate/20 μg/ml catalase) containing 0.15 μg/ml FLAG-tagged full length PHD2 expressed in and purified from baculovirus-infected Sf9 cells. After a […] preincubation at room temperature, the enzymatic reactions were initiated by the addition of 4 μL of substrates (final concentrations of 0.2 μM 2-oxoglutarate and 0.5 μM HIF-1α peptide biotinyl-DLDLEMLAPYIPMDDDFQL). After 2 hr at room temperature, the reactions were terminated and signals were developed by the addition of a 25 μL quench/detection mix to a final concentration of 1 mM ortho-phenanthroline, 0.1 mM EDTA, 0.5 nM anti-(His)6 LANCE reagent (Perkin-Elmer Life Sciences), 100 nM AF647-labeled streptavidin (Invitrogen), and 2 μg/ml (His)6-VHL complex (S. Tan (2001) Protein Expr. Purif. 21, 224-234). The ratio of time resolved fluorescence signals at 665 and 620 nm was determined, and percent inhibition was calculated relative to an uninhibited control sample run in parallel.

Row | SMILES | IC50
1 | N#Cc1ccc(Cn2c(=O)c(C(=O)NCC(=O)O)c(O)c3cccnc32)cc1 [Example 4, N-{[1-(4-Cyanobenzyl)-4-hydroxy-2-oxo-1,2-dihydro-1,8-naphthyridin-3-yl]carbonyl}glycine] | 1.6 nM
2 | COc1ccc2c(O)c(C(=O)NCC(=O)O)c(=O)n(Cc3ccc(C(F)(F)F)cc3)c2n1 [Example 7, N-({4-Hydroxy-7-methoxy-2-oxo-1-[4-(trifluoromethyl)benzyl]-1,2-dihydro-1,8-naphthyridin-3-yl}carbonyl)glycine] | 1.5 nM
3 | N#Cc1cnc2c(c1)c(O)c(C(=O)NCC(=O)O)c(=O)n2Cc1ccc(C(F)(F)F)cc1 [Example 10, N-({6-Cyano-4-hydroxy-2-oxo-1-[4-(trifluoromethyl)benzyl]-1,2-dihydro-1,8-naphthyridin-3-yl}carbonyl)glycine] | 1.2 nM
4 | C[C@H](NC(=O)c1c(O)c2cccnc2n(Cc2ccc(C(F)(F)F)cc2)c1=O)C(=O)O [Example 11, N-({4-Hydroxy-2-oxo-1-[4-(trifluoromethyl)benzyl]-1,2-dihydro-1,8-naphthyridin-3-yl}carbonyl)-L-alanine] | 6 nM
5 | C[C@@H](NC(=O)c1c(O)c2cccnc2n(Cc2ccc(C(F)(F)F)cc2)c1=O)C(=O)O [Example 12, N-({4-Hydroxy-2-oxo-1-[4-(trifluoromethyl)benzyl]-1,2-dihydro-1,8-naphthyridin-3-yl}carbonyl)-D-alanine] | 1100 nM
6 | CC[C@H](NC(=O)c1c(O)c2cccnc2n(Cc2ccc(C(F)(F)F)cc2)c1=O)C(=O)O [Example 17, (2S)-2-[({4-Hydroxy-2-oxo-1-[4-(trifluoromethyl)benzyl]-1,2-dihydro-1,8-naphthyridin-3-yl}carbonyl)amino]butanoic acid] | 160 nM
7 | O=C(O)CNC(=O)c1c(O)c2cccnc2n(Cc2cc(-c3ccccc3)no2)c1=O [Example 19, N-({4-Hydroxy-2-oxo-1-[(3-phenylisoxazol-5-yl)methyl]-1,2-dihydro-1,8-naphthyridin-3-yl}carbonyl)glycine] | 0.4 nM
8 | O=C(O)CNC(=O)c1c(O)c2cccnc2n(Cc2noc(-c3ccccc3)n2)c1=O [Example 20, N-({4-Hydroxy-2-oxo-1-[(5-phenyl-1,2,4-oxadiazol-3-yl)methyl]-1,2-dihydro-1,8-naphthyridin-3-yl}carbonyl)glycine] | 0.9 nM
9 | O=C(O)CNC(=O)c1c(O)c2cccnc2n(Cc2nc(-c3ccccc3)cs2)c1=O [Example 22, N-({4-Hydroxy-2-oxo-1-[(4-phenyl-1,3-thiazol-2-yl)methyl]-1,2-dihydro-1,8-naphthyridin-3-yl}carbonyl)glycine] | 0.8 nM
10 | CCOC(=O)Cn1c(=O)c(C(=O)NCC(=O)O)c(O)c2cccnc21 [Example 23, N-{[1-(2-Ethoxy-2-oxoethyl)-4-hydroxy-2-oxo-1,2-dihydro-1,8-naphthyridin-3-yl]carbonyl}glycine] | 8.5 nM
11 | O=C(O)CNC(=O)c1c(O)c2cccnc2n(Cc2ccc(C(F)(F)F)nc2)c1=O [Example 28, {[(4-Hydroxy-2-oxo-1-{[6-(trifluoromethyl)pyridin-3-yl]methyl}-1,2-dihydro-1,8 naphthyridin-3-yl)carbonyl}amino}acetic acid] | 0.85 nM
12 | O=C(O)CNC(=O)c1c(O)c2cc(Cl)cnc2n(Cc2ccc(C(F)(F)F)nc2)c1=O [Example 29, {[(6-Chloro-4-hydroxy-2-oxo-1-{[6-(trifluoromethyl)pyridin-3-yl]methyl}-1,2-dihydro-1,8 naphthyridin-3-yl)carbonyl]amino}acetic acid] | 0.65 nM
13 | C[C@H](NC(=O)c1c(O)c2cccnc2n(Cc2nc3ccccc3s2)c1=O)C(=O)O [Example 30, (2S)-2-({[1-(1,3-Benzothiazol-2-ylmethyl)-4-hydroxy-2-oxo-1,2-dihydro-1,8-naphthyridin-3-yl]carbonyl}amino)propanoic acid] | 2.7 nM
14 | C[C@H](NC(=O)c1c(O)c2cccnc2n(Cc2ccc(C(F)(F)F)nc2)c1=O)C(=O)O [Example 38, (2S)-2-{[(4-Hydroxy-2-oxo-1-{[6-(trifluoromethyl)pyridin-3-yl]methyl}-1,2-dihydro-1,8-naphthyridin-3-yl)carbonyl]amino}propanoic acid] | 2.7 nM
15 | C[C@H](NC(=O)c1c(O)c2cccnc2n(Cc2ccc(C(F)(F)F)cc2F)c1=O)C(=O)O [Example 39, (2S)-2-[({1-[2-Fluoro-4-(trifluoromethyl)benzyl]-4-hydroxy-2-oxo-1,2-dihydro-1,8-naphthyridin-3-yl}carbonyl)amino]propanoic acid] | 8.2 nM

More lines, now with the values ahead:

Row | IC50 | SMILES
16 | 2.1 nM | O=C(O)CNC(=O)c1c(O)c2cccnc2n(Cc2ccc(C(F)(F)F)cc2)c1=O [Example 1, N-({4-Hydroxy-2-oxo-1-[4-(trifluoromethyl)benzyl]-1,2-dihydro-1,8-naphthyridin-3-yl}carbonyl)glycine]
17 | 1.6 nM | O=C(O)CNC(=O)c1c(O)c2cccnc2n(Cc2ccc(Cl)cc2)c1=O [Example 2, N-{[1-(4-Chlorobenzyl)-4-hydroxy-2-oxo-1,2-dihydro-1,8-naphthyridin-3-yl]carbonyl}glycine]
18 | 1.9 nM | O=C(O)CNC(=O)c1c(O)c2cccnc2n(Cc2ccc(Br)cc2)c1=O [Example 3, N-{[1-(4-Bromobenzyl)-4-hydroxy-2-oxo-1,2-dihydro-1,8-naphthyridin-3-yl]carbonyl}glycine]
19 | 1.8 nM | Cc1ccc(Cn2c(=O)c(C(=O)NCC(=O)O)c(O)c3cccnc32)cc1 [Example 5, N-{[1-(4-Methylbenzyl)-4-hydroxy-2-oxo-1,2-dihydro-1,8-naphthyridin-3-yl]carbonyl}glycine]
20 | 1.6 nM | O=C(O)CNC(=O)c1c(O)c2cccnc2n(Cc2ccc(C(F)(F)F)cc2F)c1=O [Example 6, N-{[1-(2-Fluoro-4-trifluoromethylbenzyl)-4-hydroxy-2-oxo-1,2-dihydro-1,8-naphthyridin-3-yl]carbonyl}glycine]
21 | 0.7 nM | O=C(O)CNC(=O)c1c(O)c2cccnc2n(Cc2nc3ccccc3s2)c1=O [Example 8, N-{[1-(1,3-Benzothiazol-2-ylmethyl)-4-hydroxy-2-oxo-1,2-dihydro-1,8-naphthyridin-3-yl]carbonyl}glycine]
22 | 1.3 nM | O=C(O)CNC(=O)c1c(O)c2cc(I)cnc2n(Cc2ccc(C(F)(F)F)cc2)c1=O [Example 9, N-({4-Hydroxy-6-iodo-2-oxo-1-[4-(trifluoromethyl)benzyl]-1,2-dihydro-1,8-naphthyridin-3-yl}carbonyl)glycine]
23 | 1.2 nM | NC(=O)c1ccc(Cn2c(=O)c(C(=O)NCC(=O)O)c(O)c3cccnc32)cc1 [Example 13, N-({1-[4-(Aminocarbonyl)benzyl]-4-hydroxy-2-oxo-1,2-dihydro-1,8-naphthyridin-3-yl}carbonyl)glycine]
24 | 160 nM | O=C(N[C@@H](CO)C(=O)O)c1c(O)c2cccnc2n(Cc2ccc(C(F)(F)F)cc2)c1=O [Example 14, N-({1-[4-(trifluoromethyl)benzyl]-4-hydroxy-2-oxo-1,2-dihydro-1,8-naphthyridin-3-yl}carbonyl)-L-serine]
25 | 25 nM | O=C(O)C[C@H](NC(=O)c1c(O)c2cccnc2n(Cc2ccc(C(F)(F)F)cc2)c1=O)C(=O)O [Example 15, N-({1-[4-(trifluoromethyl)benzyl]-4-hydroxy-2-oxo-1,2-dihydro-1,8-naphthyridin-3-yl}carbonyl)-L-aspartic acid]
26 | 21 nM | C#CCn1c(=O)c(C(=O)NCC(=O)O)c(O)c2cccnc21 [Example 18, N-[(4-Hydroxy-2-oxo-1-prop-2-yn-1-yl-1,2-dihydro-1,8-naphthyridin-3-yl)carbonyl]glycine]
27 | 0.8 nM | O=C(O)CNC(=O)c1c(O)c2cccnc2n(Cc2nc(-c3ccccc3)no2)c1=O [Example 21, N-({4-Hydroxy-2-oxo-1-[(3-phenyl-1,2,4-oxadiazol-5-yl)methyl]-1,2-dihydro-1,8-naphthyridin-3-yl}carbonyl)glycine]
28 | 1.1 nM | O=C(O)CNC(=O)c1c(O)c2cccnc2n(Cc2nc3cc(Cl)ccc3s2)c1=O [Example 24, N-({1-[(5-Chloro-1,3-benzothiazol-2-yl)methyl]-4-hydroxy-2-oxo-1,2-dihydro-1,8-naphthyridin-3-yl}carbonyl)glycine]
29 | 2 nM | CC(C)(C)c1csc(Cn2c(=O)c(C(=O)NCC(=O)O)c(O)c3cccnc32)n1 [Example 25, N-({1-[(4-tert-Butyl-1,3-thiazol-2-yl)methyl]-4-hydroxy-2-oxo-1,2-dihydro-1,8-naphthyridin-3-yl}carbonyl)glycine]
30 | 1.3 nM | Cc1nc(Cn2c(=O)c(C(=O)NCC(=O)O)c(O)c3cccnc32)sc1C [Example 26, N-({1-[(4,5-Dimethyl-1,3-thiazol-2-yl)methyl]-4-hydroxy-2-oxo-1,2-dihydro-1,8-naphthyridin-3-yl}carbonyl)glycine]
31 | 2.6 nM | O=C(O)CNC(=O)c1c(O)c2cccnc2n(Cc2nnc(-c3ccccc3)o2)c1=O [Example 27, N-({4-Hydroxy-2-oxo-1-[(5-phenyl-1,3,4-oxadiazol-2-yl)methyl]-1,2-dihydro-1,8-naphthyridin-3-yl}carbonyl)glycine]
32 | 5.9 nM | C[C@H](NC(=O)c1c(O)c2cccnc2n(Cc2nc3cc(Cl)ccc3s2)c1=O)C(=O)O [Example 35, (2S)-2-[({1-[(5-Chloro-1,3-benzothiazol-2-yl)methyl]-4-hydroxy-2-oxo-1,2-dihydro-1,8-naphthyridin-3-yl}carbonyl)amino]propanoic acid]
